Assays:
[1] = system: human breast cancer cell line MDA-MB231; test: Growth of MDA-MB231 cells (cell number, Hoechst staining); type: cell-based; details: 5 days, 5-FU 0.25 μg/ml, BCAA 4 mM
Experimental: MDA-MB231 cells were suspended in RPMI-10% (RPMI medium containing 10% FBS), and plated in a plate at 2000 cells/well. The next day, the medium was exchanged to those shown below, and the cells were further cultured for 5 days. • group 1: RPMI-10% • group 2: RPMI-10% containing BCAA (4 mM) • group 3: RPMI-10% containing 5-FU (0.25 μg/m1) • group 4: RPMI-10% containing 5-FU (0.25 μg/ml) +BCAA (4 mM)
After 5 days, cellular nucleus was stained with Hoechst reagent, and the cell number was counted. In groups 1 and 2, cells were stained with anti-CD44 antibody, and the ratio of CD44 positive cells was analyzed by Array Scan using fluorescence microscopic quantification apparatus (Thermo Fisher).

[2] = system: MKN45 cells (human gastric cancer cell line); test: WST-8 viable cell assay, 5FU and BCAA, MKN45 cells; type: cell-based; details: 72 hr, BCAA 2 mM or 4 mM, 5FU 0.05-1 μg/ml
Experimental: MKN45 cells (human gastric cancer cell line) were plated in a 96 well plate at a concentration of 4000 cells/100 μl/well, and cultured under the following conditions for 72 hr: • LC medium (10% FBS) • LC medium +BCAA (2 mM or 4 mM) • LC medium +5FU (0.05 μg/ml, 0.1 μg/ml, 0.5 μg/ml or 1 μg/ml) • LC medium +BCAA (2 mM or 4 mM) +5FU (0.05 μg/ml, 0.1 μg/ml, 0.5 μg/ml or 1 μg/ml)
After 72 hr, WST-8 reagent was added (10 μl/well) and, after color development for 1 hr, the absorbance of OD 450 nm was measured. The absorbance of each group was shown by a is relative value provided that the absorbance of a non-stimulation group was assumed to be 1000. WST-8 is reduced by intracellular dehydrogenase to produce water-soluble formazan. By directly measuring the absorbance of formazan at 450 nm, the number of viable cells can be easily measured. The cell number and the amount of produced formazan are in a linear proportional correlation.

[3] = system: HAK1B cells; test: HAK1B subcutaneous transplant in nude mice, tumor weight and volume; type: in vivo, BALB/c nude mice; details: 5FU 250 μg/tumor into the tumor, 3(w/w)% BCAA mixed feed for 2 weeks, vs control group
Experimental: HAK1B cells were subcutaneously transplanted to 7-week-old female BALB/c nude mice (purchased from Japan Charles River) at 7,000,000 cells/mouse. After 1 week, the mice were grouped based on the tumor area. 5FU 250 μg/tumor (vehicle 10% DMSO/DW) was administered into the tumor (see Cancer Research, 70(11), 4687-4697, 2010), as well as a 3(w/w) % BCAA mixed feed or a 3(w/w) % casein mixed feed was given for 2 weeks. That is, treatments of 4 groups are as described below: • group 1: vehicle+casein mixed feed (control group) • group 2: 5FU+casein mixed feed • group 3: vehicle+BCAA mixed feed • group 4: 5FU+BCAA mixed feed
Using a vernier caliper, the tumor volume (longest Diameter×shortest diameter×height (mm^3)) was measured from the outer side of the tumor to monitor time-course changes in the tumor volume. On day 43, autopsy was performed, and the weight and volume of the tumor were measured.

[4] = system: HCT116 cells (human colorectal cancer cell line); test: Annexin V apoptosis, combined use of 5FU and BCAA, HCT116 cells; type: cell-based; details: 72 hr, BCAA 2 mM, 5FU 2 μg/ml
Experimental: HCT116 cells (human colorectal cancer cell line) were plated at a concentration of 4000 cells/well in a plate, and cultured under the following conditions for 72 hr: • LC 2.5% medium • BCAA (2 mM) • 5FU (2 μg/ml) • BCAA (2 mM)+5FU (2 μg/ml)
(§1) After 72 hr, using ApoAlert Annexin V-FITC Apoptosis kit (Clontech), the cells were stained with annexin V and fixed, and apoptotic cells (%) were detected by Array Scan (Thermo Fisher).

[5] = system: human hepatic cancer cell line HAK4; test: Annexin V apoptosis, combined use of 5FU and BCAA, HAK4 cells; type: cell-based; details: 72 hr, BCAA 2 mM, 5FU 2.5 μg/ml
Experimental: Human hepatic cancer cell line HAK4 cells were plated at a concentration of 3000 cells/well in a plate, and cultured 30 under the following conditions for 72 hr: • LC 2.5% medium • BCAA (2 mM) • 5FU (2.5 μg/ml) • BCAA (2 mM)+5FU (2.5 μg/ml)
as §1
To be specific, the cells in the 96 well plate were rinsed with 1×Binding Buffer, 40 μl of 1×Binding Buffer containing annexin V (1 μl) was added to each well, and the cells were incubated in the dark at room temperature for 5-15 min. The cells were washed, and fixed with 2% formaldehyde. 100 μl of PBS containing Hoechst33258 solution was added, and the cells were incubated in the dark for 5 min, and apoptotic cells (%) were detected by Array Scan.

SMILES: O=c1[nH]cc(F)c(=O)[nH]1 [5FU, 5-fluorouracil]
- number of viable cells (cell number) [1]: decreased
- number of viable cells (WST-8, OD 450 nm) [2]: decreased
- tumor volume [3]: significantly decreased
- tumor weight [3]: significantly decreased
- apoptotic cells (Annexin V positive cells) [4]: increased
- apoptotic cells (Annexin V positive cells) [5]: increased
